Laboratory results as given in patent US20190167611A1, “METHODS OF TREATING OR PREVENTING AMYLOID RELATED IMAGING ABNORMALITIES ASSOCIATED WITH ALZHEIMER'S DISEASE TREATMENT” (BIOGEN CHESAPEAKE LLC, priority 2016, published 2019).

Legend:
[1] = human, in vivo
Method: The two groups are referred to as the 0.4 mg/day group and the 3.0 mg/day group, respectively.

[2] = test system: Alzheimer's disease patients who present with clinically significant ARIA; test: Clinical trial of glyburide plus standard of care versus placebo in Alzheimer's disease patients with clinically significant ARIA; type: in vivo, human; details: glyburide 0.5-3.0 mg/day, several routes
Method: In one arm, glyburide is administered as a bolus followed by continuous infusion. In a second arm, glyburide is administered via a transdermal patch or gel. In a third arm, glyburide is administered via injection. In a fourth arm, glyburide is administered orally. […] Total treatment duration will be a minimum of 72 hours and will continue as needed until acute brain edema has stabilized. […] Plasma levels of glyburide are determined daily or weekly. Each patient is monitored via blood sampling and MRI. Magnetic resonance imaging scans monitor patients for amyloid-related imaging abnormalities and progression of edema and/or associated hemorrhage. FLAIR sequences are evaluated for the presence of ARIA. A 4-point scale is used to assess presence of ARIA. The percentages of patients with ARIA are compared between treatment groups and placebo group.

Compound | Metabolite exposure in relation to the administered dose of RP-1127 [1] | ARIA compared with the control group [2] | Brain edema compared with the control group [2] | Functional recovery compared with the control group [2] | Hemorrhage volume compared with the control group [2] | Dose dependence of pharmacokinetics [1]
COc1ccc(Cl)cc1C(=O)NCCc1ccc(S(=O)(=O)NC(=O)NC2CCC(O)CC2)cc1 (stereo not shown) [M1] | approximately proportional |  |  |  |  | 
COc1ccc(Cl)cc1C(=O)NCCc1ccc(S(=O)(=O)NC(=O)N[C@@H]2CCC[C@H](O)C2)cc1 [M2] | approximately proportional |  |  |  |  | 
COc1ccc(Cl)cc1C(=O)NCCc1ccc(S(=O)(=O)NC(=O)NC2CCCCC2)cc1 [glyburide] |  | significantly reduced or inhibited | reduced brain edema | improved functional recovery | reduced hemorrhage volume | dose-independent pharmacokinetics
